Assay results reported in patent US10030047B2 (Hoffmann-La Roche Inc., priority 2015, dated 2018).

Tested on: A. baumannii strain ATCC17978
Experiment: 50% growth inhibitory concentration (IC50) determination, Iso-Sensitest broth
Assay type: cell-based
Conditions: Acinetobacter baumannii; A. baumannii ATCC17978; Iso-Sensitest medium; OD 600 nm over 16 h; read-out: IC50 ATCC17978
In short: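 Twofold dilution series (e.g. 50 to 0.097 μM final) in Iso-Sensitest broth, inoculum ~5×10^(5) CFU/ml, incubated at 35±2° C. OD600 read every 20 min over 16 h; IC50 and IC90 calculated during logarithmic growth.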

SMILES	IC50 [nM]
CN1C(=O)[C@H](CCCCN)NC(=O)[C@H](CCCN)NCc2ccccc2Sc2c(N3CCOCC3)ncc(Cl)c2CNC(=O)[C@@H]1Cc1c[nH]c2ccccc12 [Example 201]	400
CN1C(=O)[C@H](CCCCN)NC(=O)[C@H](CCCN)NCc2cccnc2Sc2c(Cl)ccc(-c3ccc(C(=O)NCCO)cc3)c2CNC(=O)[C@@H]1Cc1c[nH]c2ccccc12 [Example 247, 4-[(11S,14S,17S)-14-(4-Amino-butyl)-11-(3-amino-propyl)-25-chloro-17-(1H-indol-3-ylmethyl)-16-methyl-12,15,18-trioxo-2-thia-4,10,13,16,19-pentaaza-tricyclo[19.4.0.0*3,8*]pentacosa-1(25),3(8),4,6,21,23-hexaen-22-yl]-N-(2-hydroxy-ethyl)-benzamide]	< 100
CN1C(=O)[C@H](CCCCN)NC(=O)[C@H](CCCN)NCc2cccnc2Sc2c(Cl)ccc(-c3ccc(N4CCNCC4)cc3)c2CNC(=O)[C@@H]1Cc1c[nH]c2ccccc12 [Example 245, (11S,14S,17S)-14-(4-Amino-butyl)-11-(3-amino-propyl)-25-chloro-17-(1H-indol-3-ylmethyl)-16-methyl-22-(4-piperazin-1-yl-phenyl)-2-thia-4,10,13,16,19-pentaaza-tricyclo[19.4.0.0*3,8*]pentacosa-1(25),3(8),4,6,21,2-hexaene-12,15,18-trione]	< 100
CN1C(=O)[C@H](CCCCN)NC(=O)[C@H](CCCN)NCc2cccnc2Sc2c(Cl)ccc(-c3cccc(CCN)c3)c2CNC(=O)[C@@H]1Cc1c[nH]c2ccccc12 [Example 244, (11S,14S,17S)-14-(4-Amino-butyl)-22-[3-(2-amino-ethyl)-phenyl]-11-(3-amino-propyl)-25-chloro-17-(1H-indol-3-ylmethyl)-16-methyl-2-thia-4,10,13,16,19-pentaaza-tricyclo[19.4.0.0*3,8*]pentacosa-1(25),3(8),4,6,21,23-hexaene-12,15,18-trione]	< 400
CN1C(=O)[C@H](CCCCN)NC(=O)[C@H](CCCN)NCc2cccnc2Sc2c(Cl)ccc(-c3ccc(OC4CCNCC4)cc3)c2CNC(=O)[C@@H]1Cc1c[nH]c2ccccc12 [Example 242, (11S,14S,17S)-14-(4-Amino-butyl)-11-(3-amino-propyl)-25-chloro-17-(1H-indol-3-ylmethyl)-16-methyl-22-[4-(piperidin-4-yloxy)-phenyl]-2-thia-4,10,13,16,19-pentaaza-tricyclo[19.4.0.0*3,8*]pentacosa-1(25),3(8),4,6,21,23-hexaene-12,15,18-trione]	< 200
Cc1cc(-c2ccc3c(n2)CNC(=O)[C@H](Cc2c[nH]c4ccccc24)N(C)C(=O)[C@H](CCCCN)NC(=O)[C@H](CCCN)NCc2cccnc2S3)ccn1 [Example 215, (7S,10S,13S)-13-((1H-Indol-3-yl)methyl)-10-(4-aminobutyl)-7-(3-aminopropyl)-12-methyl-18-(2-methylpyridin-4-yl)-6,7,9,10,12,13,15,16-octahydrodipyrido[2,3-b:2′,3′-p][1,5,8,11,14]thiatetraazacycloheptadecine-8,11,14(5H)-trione]	2000
CN(C)c1nccc2c1CNC(=O)[C@H](Cc1c[nH]c3ccccc13)N(C)C(=O)[C@H](CCCCN)NC(=O)[C@H](CCCN)NCc1cccnc1S2 [Example 237, (7S,10S,13S)-13-((1H-Indol-3-yl)methyl)-10-(4-aminobutyl)-7-(3-aminopropyl)-17-(dimethylamino)-12-methyl-6,7,9,10,12,13,15,16-octahydrodipyrido [2,3-b:3′,4′-p][1,5,8,11,14]thiatetraazacycloheptadecine-8,11,14(5H)-trione]	800
CN1C(=O)[C@H](CCCN)NC(=O)[C@H](CCCN)NCc2ccccc2Sc2c(Cl)cc(Cl)cc2CNC(=O)[C@@H]1Cc1c[nH]c2ccccc12 [Example 133, (12S,15S,18S)— 15,18-Bis-(3-amino-propyl)-4,6-dichloro-12-(1H-indol-3-ylmethyl)-13-methyl-2-thia-10,13,16,19-tetraaza-tricyclo[19.4.0.0*3,8*]pentacosa-1(25),3,5,7,21,23-hexaene-11,14,17-trione]	100
COc1cc(-c2ccc3c(n2)CNC(=O)[C@H](Cc2c[nH]c4ccccc24)N(C)C(=O)[C@H](CCCCN)NC(=O)[C@H](CCCN)NCc2cccnc2S3)ccn1 [Example 217, (7S,10S,13S)-13-((1H-Indol-3-yl)methyl)-10-(4-aminobutyl)-7-(3-aminopropyl)-18-(2-methoxypyridin-4-yl)-12-methyl-6,7,9,10,12,13,15,16-octahydrodipyrido[2,3-b:2′,3′-p][1,5,8,11,14]thiatetraazacycloheptadecine-8,11,14(5H)-trione]	1000
CN1C(=O)[C@H](CCCCN)NC(=O)[C@H](CCCN)NCc2cccnc2Sc2c(Cl)ccc(-c3ccc(OCC(=O)O)cc3)c2CNC(=O)[C@@H]1Cc1c[nH]c2ccccc12 [Example 241, {4-[(11S,14S,17S)-14-(4-Amino-butyl)-11-(3-amino-propyl)-25-chloro-17-(1H-indol-3-ylmethyl)-16-methyl-12,15,18-trioxo-2-thia-4,10,13,16,19-pentaaza-tricyclo[19.4.0.0*3,8*]pentacosa-1(25),3(8),4,6,21,23-hexaen-22-yl]-phenoxy}-acetic acid]	< 200
CN1C(=O)[C@H](CCCCN)NC(=O)[C@H](CCCN)NCc2cccnc2Sc2c(Cl)ccc(C(F)(F)F)c2CNC(=O)[C@@H]1CC1CNc2ccccc21 (stereo partly drawn) [Example 136, (11S,14S,17S)-14-(4-Amino-butyl)-11-(3-amino-propyl)-25-chloro-17-(2,3-dihydro-1H-indol-3-ylmethyl)-16-methyl-22-trifluoromethyl-2-thia-4,10,13,16,19-pentaaza-tricyclo[19.4.0.0*3,8*]pentacosa-1(25),3,5,7,21,23-hexaene-12,15,18-trione]	600
